pIC50: −log10 of the molar value.
Biological target: T1, Dipeptidyl Peptidase-IV (DPP-IV) (Homo sapiens, UniProt P27487)
T1 construct: made in house
Assay: Measurement of DPP-IV Activity-Inhibiting Ability (fluorescent substrate Ac-Gly-Pro-AFC)
Assay type: biochemical
Details: 25° C., 50 mmol HEPES (pH 7.4), DP-IV 7.1 nM, enzyme reaction for 1 hour
Text: Dipeptidyl Peptidase-IV (DPP-IV), known as serine protease, was obtained by a modification of the known method (Tanaka T. et al, Proc. Natl. Acad. Sci. USA, (1994) 91, 3082-3086), which comprises cloning, purification by use of Baculo-Virus and activation steps. DPP-IV was used to test the pharmaceutical efficacy of candidate inhibitors as follows. The cloned DP-IV was expressed in Baculo-Virus, which was purified by nickel column and then subjected to dialysis. The inhibitors synthesized in Examples were tested to determine the binding activity there of using a fluorescent substrate, Ac-Gly-Pro-AFC. Enzyme reactions were conducted for various concentrations of inhibitors, using 100 µM Ac-Gly-Pro-AFC at 25° C. in a buffer solution containing 50 mmol HEPES (pH 7.4), with the concentration of DP-IV being 7.1 nM. […] As the fluorescent spectrometer, Spectra MAX GeminiXS fluorescent spectrometer from Molecular Device Co. was used and the excitation frequency and emission frequency were set to 400 nm and 505 nm, respectively.

T1 sequence (P27487 whole entry): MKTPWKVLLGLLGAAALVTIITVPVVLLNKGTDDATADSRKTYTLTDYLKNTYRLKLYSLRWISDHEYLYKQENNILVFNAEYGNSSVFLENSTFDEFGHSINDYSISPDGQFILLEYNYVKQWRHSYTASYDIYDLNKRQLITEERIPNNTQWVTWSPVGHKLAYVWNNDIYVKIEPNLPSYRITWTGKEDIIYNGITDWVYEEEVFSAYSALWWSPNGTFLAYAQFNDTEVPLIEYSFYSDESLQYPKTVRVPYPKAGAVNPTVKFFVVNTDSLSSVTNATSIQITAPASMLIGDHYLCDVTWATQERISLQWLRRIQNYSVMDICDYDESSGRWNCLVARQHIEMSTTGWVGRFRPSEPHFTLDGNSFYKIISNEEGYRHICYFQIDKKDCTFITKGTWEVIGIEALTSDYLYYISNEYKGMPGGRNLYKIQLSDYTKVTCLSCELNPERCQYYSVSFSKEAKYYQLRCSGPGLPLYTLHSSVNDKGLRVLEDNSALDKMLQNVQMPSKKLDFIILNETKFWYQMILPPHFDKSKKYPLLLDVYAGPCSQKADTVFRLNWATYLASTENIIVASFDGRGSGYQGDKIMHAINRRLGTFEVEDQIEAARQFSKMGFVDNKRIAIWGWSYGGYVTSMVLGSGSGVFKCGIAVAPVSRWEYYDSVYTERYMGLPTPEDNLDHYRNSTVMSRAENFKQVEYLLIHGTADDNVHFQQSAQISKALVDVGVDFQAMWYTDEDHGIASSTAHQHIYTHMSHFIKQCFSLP

N[C@@H](CC(=O)N1CCc2c(nc(-c3ccc(F)cc3)nc2C(F)(F)F)C1)CN1CC(F)(F)CCC1=O [Ex. 30, 1-{(2S)-2-amino-4-[2-(4-fluorophenyl)-4-(trifluoromethyl)-5,8-dihydropyrido[3,4-d]pyrimidin-7(6H)-yl]-4-oxobutyl}-5,5-difluoropiperidin-2-one]
pIC50: 7.68

N[C@@H](CC(=O)N1CCc2c(nc(-c3ccoc3)nc2C(F)(F)F)C1)CN1CC(C(F)(F)F)CC1=O (stereo partly drawn) [Ex. 109, 1-{(2S)-2-amino-4-[2-(3-furyl)-4-(trifluoromethyl)-5,8-dihydropyrido[3,4-d]pyrimidin-7(6H)-yl]-4-oxobutyl}-4-(trifluoromethyl)pyrrolidin-2-one]
pIC50: 7.26

C[C@@H]1CCC(=O)N(C[C@@H](N)CC(=O)N2CCc3c(nc(-c4ccoc4)nc3C(F)(F)F)C2)C1 [Ex. 66, (5R)-1-{(2S)-2-amino-4-[2-(3-furyl)-4-(trifluoromethyl)-5,8-dihydropyrido[3,4-d]pyrimidin-7(6H)-yl]-4-oxobutyl}-5-methylpiperidin-2-one]
pIC50: 7.80

C[C@@H]1CCC(=O)N(C[C@@H](N)CC(=O)N2CCc3sc(-c4ccc(C(F)(F)F)cc4)nc3C2)C1 [Ex. 41, (5R)-1-[(2S)-2-amino-4-oxo-4-{2-[4-(trifluoromethyl)phenyl]-6,7-dihydro[1,3]thiazolo[4,5,c]pyridin-5(4H)-yl}butyl]-5-methylpiperidin-2-one]
pIC50: 7.85

C[C@@H]1CCC(=O)N(C[C@@H](N)CC(=O)N2CCc3c(nc(-c4ccco4)nc3C(F)(F)F)C2)C1 [Ex. 64, (5R)-1-{(2S)-2-amino-4-[2-(2-furyl)-4-(trifluoromethyl)-5,8-dihydropyrido[3,4-d]pyrimidin-7(6H)-yl]-4-oxobutyl}-5-methylpiperidin-2-one]
pIC50: 8.30

C[C@H]1CN(C[C@@H](N)CC(=O)N2CCc3c(nc(C(F)(F)C(F)(F)F)nc3C(F)(F)F)C2)C(=O)CO1 [Ex. 97, (6S)-4-{(2S)-2-amino-4-oxo-4-[2-(pentafluoroethyl)-4-(trifluoromethyl)-5,8-dihydropyrido[3,4-d]pyrimidin-7(6H)-yl]butyl}-6-methylmorpholine-3-one]
pIC50: 7.24

N[C@@H](CC(=O)N1CCc2c(nc(-c3ccsc3)nc2C(F)(F)F)C1)CN1CC(F)(F)CCC1=O [Ex. 61, 1-{(2S)-2-amino-4-oxo-4-[2-(3-thienyl)-4-(trifluoromethyl)-5,8-dihydropyrido[3,4-d]pyrimidin-7(6H)-yl]butyl}-5,5-difluoropiperidin-2-one]
pIC50: 7.26

N[C@@H](CC(=O)N1CCc2c(nc(-c3ccc[nH]3)nc2C(F)(F)F)C1)CN1CC(F)(F)CCC1=O [Ex. 69, 1-{(2S)-2-amino-4-oxo-4-[2-(1H-pyrrol-2-yl)-4-(trifluoromethyl)-5,8-dihydropyrido[3,4-d]pyrimidin-7(6H)-yl]butyl}-5,5-difluoropiperidin-2-one]
pIC50: 7.26

C[C@H]1CN(C[C@@H](N)CC(=O)N2CCc3c(ncnc3C(F)(F)F)C2)C(=O)CO1 [Ex. 88, (6S)-4-{(2S)-2-amino-4-oxo-4-[4-(trifluoromethyl)-5,8-dihydropyrido[3,4-d]pyrimidin-7(6H)-yl]butyl}-6-methylmorpholine-3-one]
pIC50: 7.32

C[C@@H]1CCC(=O)N(C[C@@H](N)CC(=O)N2CCc3c(nc(-c4ccccc4)nc3C(F)(F)F)C2)C1 [Ex. 22, (5R)-1-{(2S)-2-amino-4-oxo-4-[2-phenyl-4-(trifluoromethyl)-5,8-dihydropyrido[3,4-d]pyrimidin-7(6H)-yl]butyl}-5-methylpiperidin-2-one]
pIC50: 7.31

Cc1nc2c(c(C(F)(F)F)n1)CCN(C(=O)C[C@H](N)CN1C[C@H](C)OCC1=O)C2 [Ex. 86]
pIC50: 7.52

C[C@@H]1CCC(=O)N(C[C@@H](N)CC(=O)N2CCc3sc(-c4ccc(F)cc4)nc3C2)C1 [Ex. 44, (5R)-1-{(2S)-2-amino-4-[2-(4-fluorophenyl)-6,7-dihydro[1,3]thiazolo[4,5,c]pyridin-5(4H)-yl]-4-oxobutyl}-5-methylpiperidin-2-one]
pIC50: 7.89

N[C@@H](CC(=O)N1CCc2sc(-c3ccc(C(F)(F)F)cc3)nc2C1)CN1CC(F)(F)CCC1=O [Ex. 43, 1-[(2S)-2-amino-4-oxo-4-{2-[4-(trifluoromethyl)phenyl]-6,7-dihydro[1,3]thiazolo[4,5,c]pyridin-5(4H)-yl}butyl]-5,5-difluoropiperidin-2-one]
pIC50: 8.05

N[C@@H](CC(=O)N1CCc2c(nc(-c3ccco3)nc2C(F)(F)F)C1)CN1CC(F)(F)CCC1=O [Ex. 65, 1-{(2S)-2-amino-4-[2-(2-furyl)-4-(trifluoromethyl)-5,8-dihydropyrido[3,4-d]pyrimidin-7(6H)-yl]-4-oxobutyl}-5,5-difluoropiperidin-2-one]
pIC50: 7.92

N[C@@H](CC(=O)N1CCc2c(nc(-c3ccoc3)nc2C(F)(F)F)C1)CN1CC(F)(F)CCC1=O [Ex. 67, 1-{(2S)-2-amino-4-[2-(3-furyl)-4-(trifluoromethyl)-5,8-dihydropyrido[3,4-d]pyrimidin-7(6H)-yl]-4-oxobutyl}-5,5-difluoropiperidin-2-one]
pIC50: 8.00

C[C@@H]1CCC(=O)N(C[C@@H](N)CC(=O)N2CCc3c(nc(C(F)(F)F)nc3C(F)(F)F)C2)C1 [Ex. 82, (5R)-1-{(2S)-2-amino-4-[2,4-bis(trifluoromethyl)-5,8-dihydropyrido[3,4-d]pyrimidin-7(6H)-yl]-4-oxobutyl}-5-methylpiperidin-2-one]
pIC50: 7.80

N[C@@H](CC(=O)N1CCc2c(nc(-c3ccncc3)nc2C(F)(F)F)C1)CN1CC(F)(F)CCC1=O [Ex. 57, 1-{(2S)-2-amino-4-oxo-4-[2-pyridin-4-yl-4-(trifluoromethyl)-5,8-dihydropyrido[3,4-d]pyrimidin-7(6H)-yl]butyl}-5,5-difluoropiperidin-2-one]
pIC50: 7.32

N[C@@H](CC(=O)N1CCn2c(nnc2C(F)(F)F)C1)CN1CCCC1=O [Ex. 6, 1-[2S-amino-4-oxo-4-(3-trifluoromethyl-5,6-dihydro-8H-[1,2,4]triazolo[4,3-a]pyrazin-7-yl)-butyl]-pyrrolidin-2-one]
pIC50: 6.00

CC1CC(=O)N(C[C@@H](N)CC(=O)N2CCn3c(nnc3C(F)(F)F)C2)C1 (stereo partly drawn) [Ex. 4, 1-[2S-amino-4-oxo-4-(3-trifluoromethyl-5,6-dihydro-8H-[1,2,4]triazolo[4,3-a]pyrazin-7-yl)-butyl]-4-methyl-pyrrolidin-2-one]
pIC50: 6.90

CC1CCN(C[C@@H](N)CC(=O)N2CCn3c(nnc3C(F)(F)F)C2)C1=O (stereo partly drawn) [Ex. 8, 1-[2S-amino-4-oxo-4-(3-trifluoromethyl-5,6-dihydro-8H-[1,2,4]triazolo[4,3-a]pyrazin-7-yl)-butyl]-3-methyl-pyrrolidin-2-one]
pIC50: 5.38

CC1CC(=O)N(C[C@@H](N)CC(=O)N2CCc3ccccc3C2)C1 (stereo partly drawn) [Ex. 18, 1-[2S-amino-4-(3,4-dihydro-1H-isoquinolin-2-yl)-4-oxo-butyl]-4-methyl-pyrrolidin-2-one]
pIC50: 6.09

CC(C)(C)c1nc2c(c(C(F)(F)F)n1)CCN(C(=O)C[C@H](N)CN1CC(F)(F)CCC1=O)C2 [Ex. 92, 1-{(2S)-2-amino-4-[2-t-butyl-4-(trifluoromethyl)-5,8-dihydropyrido[3,4-d]pyrimidin-7(6H)-yl]-4-oxobutyl}-5,5-difluoropiperidin-2-one]
pIC50: 7.32

C[C@@H]1CCC(=O)N(C[C@@H](N)CC(=O)N2CCc3c(nc(-c4ccc[nH]4)nc3C(F)(F)F)C2)C1 [Ex. 68, (5R)-1-{(2S)-2-amino-4-oxo-4-[2-(1H-pyrrol-2-yl)-4-(trifluoromethyl)-5,8-dihydropyrido[3,4-d]pyrimidin-7(6H)-yl]butyl}-5-methylpiperidin-2-one]
pIC50: 7.14

C[C@H]1CN(C[C@@H](N)CC(=O)N2CCc3sc(-c4ccc(C(F)(F)F)cc4)nc3C2)C(=O)CO1 [Ex. 42, (6S)-4-[(2S)-2-amino-4-oxo-4-{2-[4-(trifluoromethyl)phenyl]-6,7-dihydro[1,3]thiazolo[4,5,c]pyridin-5(4H)-yl}butyl]-6-methylmorpholine-3-one]
pIC50: 7.85

N[C@@H](CC(=O)N1CCc2c(cccc2C(F)(F)F)C1)CN1CC(F)(F)CCC1=O [Ex. 28, 1-{(2S)-2-amino-4-oxo-4-[5-(trifluoromethyl)-3,4-dihydroisoquinolin-2(1H)-yl]butyl}5,5-difluoropiperidin-2-one]
pIC50: 5.93

N[C@@H](CC(=O)N1CCc2sc(C3CCOCC3)nc2C1)CN1CC(F)(F)CCC1=O [Ex. 49, 1-{(2S)-2-amino-4-oxo-4-[2-(tetrahydro-2H-pyran-4-yl)-6,7-dihydro[1,3]thiazolo[4,5, c]pyridin-5(4H)-yl]butyl}-5,5-difluoropiperidin-2-one]
pIC50: 6.63

Cc1nc2c(c(C(F)(F)F)n1)CCN(C(=O)C[C@H](N)CN1C[C@H](C)CCC1=O)C2 [Ex. 81, (5R)-1-{(2S)-2-amino-4-[2-methyl-4-(trifluoromethyl)-5,8-dihydropyrido[3,4-d]pyrimidin-7(6H)-yl]-4-oxobutyl}-5-methylpiperidin-2-one]
pIC50: 8.00

CCCc1nc2c(c(C(F)(F)F)n1)CCN(C(=O)C[C@H](N)CN1CC(F)(F)CCC1=O)C2 [Ex. 100, 1-{(2S)-2-amino-4-oxo-4-[2-propyl-4-(trifluoromethyl)-5,8-dihydropyrido[3,4-d]pyrimidin-7(6H)-yl]butyl}-5,5-difluoropiperidin-2-one]
pIC50: 7.74

CC1CCN(C[C@@H](N)CC(=O)N2CCc3c(nc(C(F)(F)F)nc3C(F)(F)F)C2)C(=O)C1 (stereo partly drawn) [Ex. 110, 1-{(2S)-2-amino-4-[2,4-bis(trifluoromethyl)-5,8-dihydropyrido[3,4-d]pyrimidin-7(6H)-yl]-4-oxobutyl}-4-methyloxopiperidin-2-one]
pIC50: 7.25

— US7879848B2, “Dipeptidyl Peptidase-IV inhibiting compounds, method of preparing the same, and pharmaceutical compositions containing the same as an active agent” (LG Life Sciences, Ltd., priority 2005, dated 2011)
